Assay results taken from patent publication US20220056043A1, “NITROGEN-CONTAINING FUSED CYCLIC COMPOUND, PREPARATION METHOD THEREFOR AND USE THEREOF” (SICHUAN KELUN-BIOTECH BIOPHARMACEUTICAL CO., LTD., priority 2019, published 2022).

What was measured:
THP1-defNLRP3 cells = assay: Agonistic effect on the expression of IL-1β in NLRP3 deficient THP1 cells (THP1-defNLRP3) after PMA-induced differentiation (HTRF); type: cell-based, human; conditions: Homo sapiens, THP-1; IL-1β level, PMA-differentiated NLRP3 deficient THP1 cells, 6 hours; highest test concentration 30 μM; read-out: hNLRP3 EC50 (μM) (THP-1defNLRP3)
In short: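 PMA-differentiated (1 μM, 24 h) NLRP3-deficient THP1 macrophages, 1×10^5 cells/well in RPMI 1640 with 2% heat-inactivated FBS, treated with compound for 6 h at 37 °C. Supernatant IL-1β measured by HTRF. EC50 from four-parameter variable-slope fit.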

hTLR7 = molecular target: T1, hTLR7 (Homo sapiens, UniProt Q9NYK1); assay: Agonistic effect on hTLR7, HEK-hTLR7-NF-κB-Luciferase reporter cells; type: cell-based; conditions: 16 hours
T1 construct: host or cells: HEK-hTLR7-NF-κB-Luciferase cells
T1 sequence (Q9NYK1 27-1049): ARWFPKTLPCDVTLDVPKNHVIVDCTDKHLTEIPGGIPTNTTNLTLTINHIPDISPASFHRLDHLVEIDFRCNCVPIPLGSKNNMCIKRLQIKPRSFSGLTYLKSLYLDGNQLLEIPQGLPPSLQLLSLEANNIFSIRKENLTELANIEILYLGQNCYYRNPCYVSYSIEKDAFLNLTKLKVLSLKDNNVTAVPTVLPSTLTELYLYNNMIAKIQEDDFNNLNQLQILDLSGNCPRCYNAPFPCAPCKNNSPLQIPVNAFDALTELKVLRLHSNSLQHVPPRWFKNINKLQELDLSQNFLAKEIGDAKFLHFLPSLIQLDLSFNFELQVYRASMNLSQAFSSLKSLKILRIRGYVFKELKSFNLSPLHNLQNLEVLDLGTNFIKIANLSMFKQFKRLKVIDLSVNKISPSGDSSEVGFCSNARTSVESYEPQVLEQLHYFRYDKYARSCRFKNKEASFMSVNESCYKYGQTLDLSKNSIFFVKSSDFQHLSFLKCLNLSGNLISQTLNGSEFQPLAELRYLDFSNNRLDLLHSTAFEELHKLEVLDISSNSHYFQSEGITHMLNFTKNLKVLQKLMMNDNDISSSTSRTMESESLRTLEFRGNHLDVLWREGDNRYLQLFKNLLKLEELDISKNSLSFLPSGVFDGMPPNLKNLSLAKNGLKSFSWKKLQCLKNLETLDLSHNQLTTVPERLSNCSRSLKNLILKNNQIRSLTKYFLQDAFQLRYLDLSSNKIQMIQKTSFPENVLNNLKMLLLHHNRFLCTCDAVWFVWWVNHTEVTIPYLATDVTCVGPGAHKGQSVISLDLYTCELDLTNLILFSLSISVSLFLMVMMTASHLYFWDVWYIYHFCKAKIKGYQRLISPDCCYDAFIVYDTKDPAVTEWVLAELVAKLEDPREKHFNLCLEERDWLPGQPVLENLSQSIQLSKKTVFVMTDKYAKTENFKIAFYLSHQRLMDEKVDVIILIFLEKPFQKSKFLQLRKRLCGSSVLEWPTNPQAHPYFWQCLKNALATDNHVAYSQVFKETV
In short: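 HEK cells carrying human TLR7 and NF-κB-luciferase reporter, […] in DMEM with 10% FBS, exposed to compound for 16 h at 37 °C, 5% CO2; serves as specificity counterscreen to NLRP3 activity. Luminescence (RLU) after 5 min with luciferase reagent; EC50 by four-parameter variable-slope fit.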

CYP3A4 = molecular target: T2, CYP3A4 (Homo sapiens, UniProt P08684); assay: CYP enzyme inhibition test, Vivid CYP3A4 Red Screening Kit; type: in vitro ADME; conditions: for inhibitory effect on CYP3A4: conclusion in words
T2 construct: purchased
T2 sequence (P08684 whole entry): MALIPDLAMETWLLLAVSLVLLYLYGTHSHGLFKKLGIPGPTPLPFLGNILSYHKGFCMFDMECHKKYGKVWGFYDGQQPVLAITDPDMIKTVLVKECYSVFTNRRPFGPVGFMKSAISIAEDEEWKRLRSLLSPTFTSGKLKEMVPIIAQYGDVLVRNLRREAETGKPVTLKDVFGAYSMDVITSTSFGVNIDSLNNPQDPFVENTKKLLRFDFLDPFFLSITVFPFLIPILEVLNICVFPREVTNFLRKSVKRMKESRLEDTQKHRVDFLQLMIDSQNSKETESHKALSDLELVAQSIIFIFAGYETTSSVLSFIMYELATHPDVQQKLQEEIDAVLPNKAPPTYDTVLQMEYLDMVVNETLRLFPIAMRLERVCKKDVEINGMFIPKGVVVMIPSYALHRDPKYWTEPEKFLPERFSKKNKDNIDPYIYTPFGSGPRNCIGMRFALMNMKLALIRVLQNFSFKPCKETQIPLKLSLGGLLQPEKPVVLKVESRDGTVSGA
Procedure: Experimental Example 6: CYP Enzyme Inhibition Test CYP450 is the most important enzyme system in drug metabolism. The enzymes involved in metabolism interact with drugs, and the most important ones are CYP1A2, CYP2D6 and CYP3A4. P450-Glo™ CYP1A2 Screening System, Vivid® CYP2D6 Cyan Screening Kit and Vivid® CYP3A4 Red Screening Kit were used in this test, and the inhibitory effects of the compounds on CYP1A2, CYP2D6 and CYP3A4 were determined according to the instructions of the kit.

`C[C@@H]1CN(CCNc2cc(N)nc3cc(-c4ccn[nH]4)sc23)C[C@@H](C)O1` [Compound 124, N^7-(2-((2R,6R)-2,6-dimethylmorpholino)ethyl)-2-(1H-pyrazol-5-yl)thieno[3,2-b]pyridine-5,7-diamine] was tested, and the EC50 (THP1-defNLRP3 cells) was > 30 µM, the EC50 (hTLR7) was > 100 µM and the IC50 (CYP3A4) was > 10 µM. For the same compound, the “inhibitory effect on CYP3A4” value (CYP3A4) was “no apparent inhibitory effects”.
In the case of `C[C@@H](CCO)Nc1cc(N)nc2cc(-c3ccn[nH]3)sc12` [Compound 125, (S)-3-((5-amino-2-(1H-pyrazol-5-yl)thieno[3,2-b]pyridin-7-yl)amino)butanol], the EC50 (THP1-defNLRP3 cells) is reported as > 30 µM, the EC50 (hTLR7) is reported as > 100 µM and the IC50 (CYP3A4) is reported as > 10 µM. For the same compound, the “inhibitory effect on CYP3A4” value (CYP3A4) was “no apparent inhibitory effects”.
